{"source": "patent US10664967B2", "about": "“Methods, systems, and apparatuses for quantitative analysis of heterogeneous biomarker distribution” (Ventana Medical Systems, Inc., priority 2014, dated 2020)", "system": "SKBR3 cells", "test": "Phosphomarker expression in untreated vs drug treated FFPE SKBR3 cells (multiplexed QD spectral imaging, IF, immunoblot)", "assay_type": "cell-based", "details": "250 nM, 24 hrs, MTIP, consistent with IF and immunoblot", "description": "Breast cancer cell line model SKBR3 and the prostate adenocarcinoma cell line model LNCaP were cultured in McCoy's 5A medium supplemented with 10% FBS. SKBR3 cells were treated with the ATP-competitive pan-AKT kinase inhibitor drug GSK690693 at low nanomolar concentration (250 nM) for 24 hrs for antibody validation studies. After drug treatment, cells were washed using cold 1×PBS, fixed in cold 10% Neutral Buffered Formalin and embedded in paraffin for sectioning and slide preparation.\nProtein samples from SKBR3 cells were prepared by denaturing cell lysate in an equal volume of Laemmli sample buffer (Biorad, Hercules, Calif.) with 0.5 M dithiothreitol at 100° C. for 5 min. Proteins were separated by SDS-PAGE, transferred to polyvinylidene difluoride membranes, blotted with primary antibodies and detected with horseradish peroxidase-conjugated secondary antibodies. Protein bands were detected using ECL (Thermo Scientific).\nImmunostaining for fluorescence spectral imaging was performed on FFPE specimens of SKBR3 cells and tumor tissue on a Benchmark XT autostainer (Ventana Medical Systems, Tucson, Ariz.), to evaluate phosphoprotein staining with the hapten-anti-hapten chemistry in FFPE cell and tumor specimens. All FFPE specimens (cell models, xenograft or tumor tissues) were subjected to automated deparaffinization in EZPREP buffer (VMSI Cat #950-102), and cell conditioning with CC1 buffer (VMSI Cat #950-124) for 90 min prior to antibody incubations. FFPE specimens were incubated with a single or a cocktail of hapten-conjugated primary antibodies (pS6:BF, pAKT 5473:DIG, peIF4G:TS, pPRAS40:NP, pERK 1/2:NCA, pAKT T308:DNP at 5, 15, 20, 20, 30, 12.5 μg/mL respectively) at 37° C. for 32 minutes. Following the primary antibody incubation step, samples were incubated by appropriate combination of secondary anti-hapten antibody QD conjugates (anti-BF:QD525, anti-DIG:QD565, anti-TS:QD585, anti-NP:[…], anti-NCA:QD625, anti-DNP:QD655 at 40, 50, 50, 70, 40, 30 nM concentrations respectively) at 37° C. for 32 minutes. Following automated staining with antibodies, samples were dehydrated in ethanol series, followed by xylene, and mounted using Cytoseal 60 (Thermo Scientific).\nThe specificity of the antibodies selected was tested using a series of IHC experiments using FFPE cell and xenograft model systems (FIGS. 14 15 and 16). The anti-phosphomarker hapten conjugated primary and anti-hapten monoclonal secondary functionality was tested using the SKBR3 cell line, a well-established breast cancer model of PI3K pathway activation (Englemen PNAS ref). SKBR3 cells were either untreated or treated with the AKT small molecule inhibitor GSK690693. The two cell populations were prepared as FFPE blocks and stained using the anti-phosphomarker primaries, followed by anti-hapten secondary antibodies conjugated to HRP to permit contrast through DAB. This permitted verification of the hapten-anti-hapten labeling scheme (FIG. 14; the DAB stain pattern was consistent with primary-anti-species secondary staining performed in parallel).\nA multiplexed experiment was then conducted using the combined markers followed by hyperspectral imaging and processing to separate the signal contributions for each marker (FIG. 14b). For additional comparison, SKBR3 cell lysates were subjected to immunoblotting with all six phosphoantibodies (FIG. 14c). […] The similarity of phosphomarker expression changes upon drug treatment detected using MTIP to that observed in the IF and immunoblot staining validate the specificity and functionality of the conjugated antibodies used in the multiplexed assay context.", "data": [{"smiles": "CCn1c(-c2nonc2N)nc2c(C#CC(C)(C)O)ncc(OC[C@H]3CCCNC3)c21", "note": "[GSK690693]", "values": [{"measurement": "pAKT308 expression change following drug treatment", "result": "relative increase in expression"}, {"measurement": "pAKT473 expression change following drug treatment", "result": "relative increase in expression"}, {"measurement": "pERK expression change following drug treatment", "result": "reduction in the expression"}, {"measurement": "pPRAS40 expression change following drug treatment", "result": "reduction in the expression"}, {"measurement": "pS6 expression change following drug treatment", "result": "reduction in the expression"}, {"measurement": "peIF4G expression change following drug treatment", "result": "did not show any significant change in the expression"}]}]}
